pIC50: −log10 of the molar value. Where two headings read alike, the source gives them in different places.
Target: T1, hmGluR1 receptor (Homo sapiens, UniProt Q13255)
T1 construct: expressed in transfected cells
Test: IC50 determination: intracellular calcium mobilization (FLIPR) upon Quisqualate stimulation in CHO cells stably expressing hmGluR1
Format: cell-based
Settings: against Quisqualate 1 μM (EC80)
Outline: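 CHO cells stably expressing hmGluR1 were kept overnight in DMEM high glucose with GPT and 1 mM pyruvate, then loaded 2 h with Calcium 3 dye.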

[1] = FLIPR calcium mobilization, read-out: IC50 Class
[2] = class symbols, read-out: mGIuR 1 IC50
[3] = FLIPR calcium mobilization, read-out: mGluR1 IC50

T1 sequence (Q13255 19-1194): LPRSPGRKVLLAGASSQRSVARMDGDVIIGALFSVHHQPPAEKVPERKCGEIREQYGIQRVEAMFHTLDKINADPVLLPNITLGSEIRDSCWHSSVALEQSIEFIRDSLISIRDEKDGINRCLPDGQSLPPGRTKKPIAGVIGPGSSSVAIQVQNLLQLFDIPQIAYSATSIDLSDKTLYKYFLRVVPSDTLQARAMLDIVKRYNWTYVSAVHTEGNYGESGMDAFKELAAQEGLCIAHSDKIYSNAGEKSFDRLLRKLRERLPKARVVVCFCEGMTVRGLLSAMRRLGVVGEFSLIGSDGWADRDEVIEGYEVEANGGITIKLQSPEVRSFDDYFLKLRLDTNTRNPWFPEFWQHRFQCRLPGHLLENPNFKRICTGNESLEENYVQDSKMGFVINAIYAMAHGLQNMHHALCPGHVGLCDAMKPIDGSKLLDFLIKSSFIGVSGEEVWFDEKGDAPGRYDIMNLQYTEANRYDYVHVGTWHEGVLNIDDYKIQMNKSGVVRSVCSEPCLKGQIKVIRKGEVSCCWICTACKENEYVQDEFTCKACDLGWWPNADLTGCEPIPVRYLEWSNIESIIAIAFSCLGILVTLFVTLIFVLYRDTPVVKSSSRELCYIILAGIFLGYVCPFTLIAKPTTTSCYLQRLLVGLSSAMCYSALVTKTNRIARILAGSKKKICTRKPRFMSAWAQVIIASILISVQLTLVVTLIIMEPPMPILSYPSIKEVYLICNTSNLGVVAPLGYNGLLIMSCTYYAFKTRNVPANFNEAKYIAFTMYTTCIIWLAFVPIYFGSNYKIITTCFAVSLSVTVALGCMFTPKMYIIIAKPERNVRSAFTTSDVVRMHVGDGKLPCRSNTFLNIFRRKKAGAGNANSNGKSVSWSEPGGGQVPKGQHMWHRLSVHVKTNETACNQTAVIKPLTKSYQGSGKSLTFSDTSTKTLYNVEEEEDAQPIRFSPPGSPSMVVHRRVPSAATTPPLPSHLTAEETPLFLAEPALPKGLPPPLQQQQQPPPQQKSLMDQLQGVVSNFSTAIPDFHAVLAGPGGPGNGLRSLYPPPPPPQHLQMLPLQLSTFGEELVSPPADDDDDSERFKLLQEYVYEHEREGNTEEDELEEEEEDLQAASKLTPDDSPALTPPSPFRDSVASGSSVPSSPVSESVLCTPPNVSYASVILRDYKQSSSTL

| Compound | pIC50 [1] | pIC50 [2] | further results |
| --- | --- | --- | --- |
| O=c1c2sc3nccc(NCCCCO)c3c2ncn1-c1ccc(Br)cc1 [28GV] | > 7.30 |  |  |
| CCCOc1ccc(-n2cnc3c(sc4nccc(N(C)C)c43)c2=O)cc1 [7AG] |  | < 6.00 |  |
| Cc1ccc(-n2cnc3c(sc4nccc(N(C)C)c43)c2=O)cc1C#N [7DP] |  | 6.82 to 7.30 |  |
| COc1ccc(-n2cnc3c(sc4nc(Cl)cc(NC5CC5)c43)c2=O)cc1 [57D] | 6.00 to 6.82 |  |  |
| Cc1ccc(-n2cnc3c(sc4ncc(I)c(N)c43)c2=O)cc1 [compound 175] | > 7.30 |  | pIC50 [3]: 9.12 |
| Cc1ccccc1-n1cnc2c(sc3nccc(N(C)C)c32)c1=O [7CW] |  | 6.82 to 7.30 |  |
| CN(C)c1ccnc2sc3c(=O)n(-c4ccccn4)cnc3c12 [7U] |  | 6.82 to 7.30 |  |
| CCN(C)c1ccnc2sc3c(=O)n(-c4ccc5c(c4)CCO5)cnc3c12 [28CH] | > 7.30 |  |  |
| Cc1noc2cc(F)c(-n3cnc4c(sc5nccc(N(C)C)c54)c3=O)cc12 [28EL] | < 6.00 |  |  |
| CN(C)c1ccnc2sc3c(=O)n(-c4ccc5occc5c4)cnc3c12 [7BY] |  | > 7.30 |  |
| CN(C)c1ccnc2sc3c(=O)n(-c4ccncc4)cnc3c12 [28EE] | 6.00 to 6.82 |  |  |
| CN(C)c1ccnc2sc3c(=O)n(-c4ccc(C(N)=O)cc4)cnc3c12 [7AZ] |  | < 6.00 |  |
| Cc1cc(N(C)C)c2c(n1)sc1c(=O)n(C3CCCCC3)cnc12 [7CZ] |  | > 7.30 |  |
| COc1ccc(-n2cnc3c(sc4nc(Cl)cc(OC)c43)c2=O)cc1 [57B] | < 6.00 |  |  |
| Cc1cc(N(C)C)c2c(n1)sc1c(=O)n(-c3ccc4ncsc4c3)cnc12 [7CO] |  | 6.82 to 7.30 |  |
| COc1ccc(NC(=O)CSc2nc3c(sc4nc(C)cc(C)c43)c(=O)n2-c2ccc(Cl)cc2)cc1 [P-6] |  | 6.00 to 6.82 |  |
| O=c1c2sc3nccc(NCCCCO)c3c2ncn1-c1ccc(F)cc1 [28GU] | > 7.30 |  |  |
| CCNc1c(C#N)cnc2sc3c(=O)n(C4CCCCC4)cnc3c12 [compound 50] |  | 6.00 to 6.82 |  |
| CCNc1ccnc2sc3c(=O)n(-c4ccc(OC)c(F)c4)cnc3c12 [28FZ] | > 7.30 |  |  |

| Compound | pIC50 [1] | pIC50 [2] | further results |
| --- | --- | --- | --- |
| CCCN(CCC)c1ccnc2sc3c(=O)n(C4CCCCC4)cnc3c12 [28K] |  | < 6.00 |  |
| COc1ccc(-n2cnc3c(sc4nccc(N5CCC5)c43)c2=O)cc1 [28AM] |  | 6.82 to 7.30 |  |
| CN(C)c1ccc(C#N)c2sc3c(=O)n(C4CCCCC4)cnc3c12 [compound 105] |  | < 6.00 |  |
| COc1ccc(-c2c(C(C)=O)c(C)nc3sc4c(=O)n(-c5ccc(Cl)cc5)cnc4c23)cc1 [P-11] |  | 6.00 to 6.82 |  |
| CN(C)c1ccnc2sc3c(=O)n(CC4CCCCC4)cnc3c12 [15C] |  | > 7.30 |  |
| CCOC(=O)C1CCCC(n2cnc3c(sc4nccc(OC)c43)c2=O)C1 (centres unmarked) [28EK] | < 6.00 |  |  |
| O=c1c2sc3nccc(N4CCC4)c3c2ncn1C1CCCCC1 [28V] |  | 6.00 to 6.82 |  |
| CNc1ccnc2sc3c(=O)n(-c4ccc(Cl)cc4)cnc3c12 [compound 193] | > 7.30 |  | pIC50 [3]: 9.74 |
| CN(C)c1c(-c2cccc(C#N)c2)cnc2sc3c(=O)n(C4CCCCC4)cnc3c12 [47A] |  | 6.00 to 6.82 |  |
| Cc1ccc(-n2cnc3c(sc4nccc(N(C)N)c43)c2=O)cc1 [28AE] |  | > 7.30 |  |
| CN(C)c1c(C=O)cnc2sc3c(=O)n(C4CCCCC4)cnc3c12 [compound 45] |  | > 7.30 |  |
| C=C(C)CNc1ccnc2sc3c(=O)n(-c4ccc5c(c4)OCO5)cnc3c12 [28FG] | 6.00 to 6.82 |  |  |
| O=c1c2sc3nccc(N4CCCC4)c3c2ncn1-c1ccc(Cl)cc1 [28GF] | > 7.30 |  |  |
| COc1ccc(-n2cnc3c(sc4nccc(NCC(F)(F)F)c43)c2=O)c(C)c1 [28BP] | 6.00 to 6.82 |  |  |
| O=c1c2sc3nccc(O)c3c2ncn1C1CCCCC1 [26A] |  | < 6.00 |  |
| Cc1ccc(-n2cnc3c(sc4nccc(N(C)C)c43)c2=O)nc1 [7DE] |  | > 7.30 |  |
| CCCN(C)c1ccnc2sc3c(=O)n(-c4ccc(C)cc4)cnc3c12 [28AT] |  | > 7.30 |  |
| O=c1c2sc3nccc(NC4CCCC4)c3c2ncn1C1CCCCC1 [28T] |  | < 6.00 |  |
| O=c1c2sc3nccc(NCCCO)c3c2ncn1-c1ccc2occc2c1 [28BF] | > 7.30 |  |  |

| Compound | pIC50 [1] | pIC50 [2] | further results |
| --- | --- | --- | --- |
| CN(C)c1ccnc2sc3c(=O)n(-c4ccc5c(c4)NC(=O)CO5)cnc3c12 [7BO] |  | > 7.30 |  |
| NC(=O)CNc1ccnc2sc3c(=O)n(-c4ccc(F)cc4)cnc3c12 [28GG] | 6.00 to 6.82 |  |  |
| CN(C)c1cc(N2CCCC2)nc2sc3c(=O)n(C4CCCCC4)cnc3c12 [compound 85] |  | < 6.00 |  |
| C=CCNc1ccnc2sc3c(=O)n(-c4ccc(Br)cc4)cnc3c12 [28DR] | > 7.30 |  |  |
| CCN(C)c1ccnc2sc3c(=O)n(-c4ccc(Cl)cc4)cnc3c12 [28IC] | > 7.30 |  | pIC50 [3]: 8.68 |
| Cc1ccc(-n2cnc3c(sc4nc(-c5cccs5)cc(C(F)(F)F)c43)c2=O)cc1 [P-13] |  | 6.00 to 6.82 |  |
| CN(C)c1cc(C#N)nc2sc3c(=O)n(C4CCCCC4)cnc3c12 [compound 84] |  | 6.82 to 7.30 |  |
| CN(C)c1ccnc2sc3c(=O)n(Cc4ccco4)cnc3c12 [15H] |  | 6.00 to 6.82 |  |
| O=c1c2sc3nccc(NCC4CC4)c3c2ncn1C1CCCCC1 [28AJ] |  | 6.00 to 6.82 |  |
| CNc1ccnc2sc3c(=O)n(-c4ccc(OC)cc4F)cnc3c12 [28BK] | > 7.30 |  |  |
| COc1ccc(-n2cnc3c(sc4nc(C)cc(N(C)C)c43)c2=O)cc1 [7CJ] |  | 6.82 to 7.30 |  |
| CCCCOc1ncnc2sc3c(=O)n(-c4ccc(OC)cc4)cnc3c12 [compound 191] | < 6.00 |  |  |
| COCCCNc1ccnc2sc3c(=O)n(-c4ccc(F)cc4)cnc3c12 [28GS] | > 7.30 |  |  |
| O=c1c2sc3nccc(NCCCO)c3c2ncn1-c1ccc2c(c1)CCO2 [28CJ] | > 7.30 |  |  |
| CN(C)c1ccnc2sc3c(=O)n(-c4ccc(Cl)cc4)cnc3c12 [P-2] |  | > 7.30 |  |
| COc1ccc(-n2cnc3c(sc4nccc(OC)c43)c2=O)cc1 [25B] |  | 6.00 to 6.82 |  |
| CN(C)c1ccnc2sc3c(=O)n(-c4ccc5sccc5c4)cnc3c12 [7BM] |  | > 7.30 | pIC50 [3]: 8.83 |
| COCCNc1ccnc2sc3c(=O)n(-c4ccc(Br)cc4)cnc3c12 [28GO] | > 7.30 |  |  |
| CN(CCO)c1ccnc2sc3c(=O)n(-c4ccc5occc5c4)cnc3c12 [28BE] | > 7.30 |  |  |

Second part, led by results:

| pIC50 [1] | pIC50 [2] | Compound | further results |
| --- | --- | --- | --- |
| < 6.00 |  | Cc1ccc(-n2cnc3c(sc4ncnc(NCC(C)(C)C)c43)c2=O)cc1 [95FP] |  |
| > 7.30 |  | CNc1ncnc2sc3c(=O)n(-c4ccc(Br)cc4)cnc3c12 [95BD] |  |
|  | 6.82 to 7.30 | CCCN(C)c1ccnc2sc3c(=O)n(-c4ccc(C)cc4)c(C)nc3c12 [113M] |  |
| 6.82 to 7.30 |  | COc1ccc(-n2cnc3c(sc4nccc(NC5CC5)c43)c2=O)c(C)c1 [131I] |  |
|  | < 6.00 | O=C(Nc1ccnc2sc3c(=O)n(C4CCCCC4)cnc3c12)c1ccco1 [73E] |  |
|  | > 7.30 | CN(C)c1ccnc2sc3c(=O)n(N4CC5CCCC5C4)cnc3c12 (centres unmarked) [60E] |  |
| > 7.30 |  | COc1ccc(-n2cnc3c(sc4ncnc(NC5CC5)c43)c2=O)c(C)c1 [95AW] |  |
|  | 6.00 to 6.82 | Cc1ccc(-n2c(C)nc3c(sc4nccc(NCC(F)(F)F)c43)c2=O)cc1 [113L] |  |
|  | > 7.30 | Cc1nc2c(sc3nccc(N(C)C)c32)c(=O)n1-c1ccccc1 [113B] |  |
|  | < 6.00 | O=C(Nc1ccnc2sc3c(=O)n(C4CCCCC4)cnc3c12)C1CCC1 [73D] |  |
| > 7.30 |  | C=C(C)CNc1ncnc2sc3c(=O)n(-c4ccc5sccc5c4)cnc3c12 [95FE] |  |
| > 7.30 |  | Cc1ccc(-n2cnc3c(sc4ncnc(NCCCO)c43)c2=O)cc1 [95DL] |  |
|  | < 6.00 | CN(C)c1ccnc2sc3c(=O)n(NC(=O)C(F)(F)F)c(C(F)(F)F)nc3c12 [65B] |  |
|  | < 6.00 | O=c1c2sc3nccc(NCc4ccccc4)c3c2ncn1C1CCCCC1 [72E] |  |
| 6.82 to 7.30 |  | Cc1ccc(-n2cnc3c(sc4ncnc(NCC5CC5)c43)c2=O)cc1 [95DP] |  |
|  | < 6.00 | O=c1c2sc3nccc(NC4Cc5ccccc5C4)c3c2ncn1C1CCCCC1 [72D] |  |
| > 7.30 |  | C#CCNc1ncnc2sc3c(=O)n(-c4ccc5scnc5c4)cnc3c12 [95EL] |  |
| < 6.00 |  | COc1ccnc2sc3c(=O)n(-c4ccc5c(c4)OCCO5)cnc3c12 [161B] |  |
| > 7.30 |  | C=CCNc1ncnc2sc3c(=O)n(-c4ccc(OC)cc4)cnc3c12 [95GP] |  |
|  | 6.82 to 7.30 | Cc1ccc(-n2c(C)nc3c(sc4nccc(NCCO)c43)c2=O)cc1 [113N] |  |

| pIC50 [1] | pIC50 [2] | Compound | further results |
| --- | --- | --- | --- |
|  | 6.82 to 7.30 | CN(C)c1cccc2sc3c(=O)n(-c4ccc(Cl)cc4)cnc3c12 [103A] |  |
|  | > 7.30 | CCN(C)c1ncnc2sc3c(=O)n(-c4ccc(OC(F)(F)F)cc4)cnc3c12 [95R] |  |
|  | < 6.00 | CN(C)c1ccnc2c1c1ncn(-c3ccc(OC(F)F)cc3)c(=O)c1n2C [134D] |  |
|  | 6.00 to 6.82 | Cc1ccc(-n2cnc3c(sc4ncc(N)cc43)c2=O)cc1 [147A] |  |
| < 6.00 |  | O=c1c2sc3ncnc(Nc4ccccc4)c3c2ncn1-c1ccc(Br)cc1 [95GF] |  |
|  | > 7.30 | C=CCNc1ccnc2sc3c(=O)n(C4CCCCC4)cnc3c12 [72B] |  |
| > 7.30 |  | CSCCNc1ncnc2sc3c(=O)n(-c4ccc(Cl)cc4)cnc3c12 [95FS] |  |
| < 6.00 |  | Cc1ccc(-n2cnc3c(sc4ncc(C(=O)N5CCNCC5)cc43)c2=O)cc1 [205B] |  |
| > 7.30 |  | C=C(C)CNc1ncnc2sc3c(=O)n(-c4ccc5scnc5c4)cnc3c12 [95FC] |  |
| < 6.00 |  | CCOc1cnnc2sc3c(=O)n(-c4ccc(C)cc4)cnc3c12 [161A] |  |
| < 6.00 |  | CN(C)c1cccc2sc3c(=O)n(-c4ccccc4Cl)cnc3c12 [103G] |  |
| 6.82 to 7.30 |  | C#CCNc1ncnc2sc3c(=O)n(-c4ccc5c(c4)OCO5)cnc3c12 [95EO] |  |
|  | < 6.00 | CSc1ccc(-n2cnc3c4c(N(C)C)ccnc4n(C)c3c2=O)cc1 [134C] |  |
|  | < 6.00 | CN1CCN(c2ccnc3sc4c(=O)n(C5CCCCC5)cnc4c23)CC1 [61A] |  |
| > 7.30 |  | O=c1c2sc3ncnc(NC4CC4)c3c2ncn1-c1ccc2ncsc2c1 [95AZ] |  |
| > 7.30 |  | C=C(C)CNc1ncnc2sc3c(=O)n(-c4ccc(Cl)cc4)cnc3c12 [95EZ] |  |
| < 6.00 |  | CCn1cnc2c(sc3ncnc(Nc4ccc(OC)cc4)c32)c1=O [95GM] |  |
| 6.00 to 6.82 |  | O=c1c2sc3ncccc3c2ncn1-c1ccc(Cl)cc1 [183B] |  |
| > 7.30 |  | C=C(C)CNc1ncnc2sc3c(=O)n(-c4ccccc4)cnc3c12 [95FH] |  |
|  | > 7.30 | CCNc1ncnc2sc3c(=O)n(-c4ccc5c(c4)CCO5)cnc3c12 [95AC] |  |
